Data on six compounds can be found in patent US10757937B2, “Sulfonamides that activate ABA receptors” (The Regents of the University of California, priority 2014, dated 2020).

The structures appear in SMILES notation. A value given as a limit tells only on which side of the number the result lay.

Common to all, as to test: receptor-mediated PP2C (HAB1) inhibition in vitro assay
Type in all cases: biochemical

One test deals with T1, PYL3 (Arabidopsis thaliana, UniProt Q9SSM7).
T1 construct: 6X-His; made in house; host or cells: E. coli BL21[DE3]pLysS
T1 sequence (Q9SSM7 1-209): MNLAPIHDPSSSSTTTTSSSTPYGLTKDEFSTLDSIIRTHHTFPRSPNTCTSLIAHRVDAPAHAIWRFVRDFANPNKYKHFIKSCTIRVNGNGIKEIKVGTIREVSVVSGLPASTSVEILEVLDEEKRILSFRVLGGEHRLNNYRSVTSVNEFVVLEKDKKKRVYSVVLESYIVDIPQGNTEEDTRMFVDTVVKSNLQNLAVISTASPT
T1 sequence (Q9CAJ0 23-511 partner): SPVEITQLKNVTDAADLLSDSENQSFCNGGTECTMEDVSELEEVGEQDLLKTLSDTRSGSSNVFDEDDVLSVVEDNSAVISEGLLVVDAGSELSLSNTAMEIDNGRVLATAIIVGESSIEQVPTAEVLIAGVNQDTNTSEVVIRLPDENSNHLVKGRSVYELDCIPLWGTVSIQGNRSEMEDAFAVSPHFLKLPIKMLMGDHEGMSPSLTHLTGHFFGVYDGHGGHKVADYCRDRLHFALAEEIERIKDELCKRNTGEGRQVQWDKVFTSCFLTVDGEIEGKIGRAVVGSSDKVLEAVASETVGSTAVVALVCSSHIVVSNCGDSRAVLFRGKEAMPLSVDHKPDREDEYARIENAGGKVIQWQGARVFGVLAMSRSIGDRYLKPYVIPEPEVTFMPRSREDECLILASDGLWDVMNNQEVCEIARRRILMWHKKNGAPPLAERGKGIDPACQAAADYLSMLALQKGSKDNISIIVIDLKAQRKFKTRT
Particulars: for remaining activity at 50 µM: 50 uM of the test compound; for IC50: Table XII-B, calculated from dose curves, read-out: PP2C Activity (IC50 in uM) PYL3. The procedure, abridged: (§1)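 His-tagged receptors (MBP fusion for PYL11) at 2:1 ratio to 50 nM GST-HAB1 in 100 mM Tris-OAc pH 7.9, 100 mM NaCl, 1 mM MnCl2; 4-methylumbelliferyl-phosphate fluorogenic substrate. Compounds at 50 uM (ABA 10 uM); IC50 from dose curves for selected compounds.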

Another test concerns the target T2, PYL10 (Arabidopsis thaliana, UniProt Q8H1R0).
T2 construct: 6X-His; made in house; host or cells: E. coli BL21[DE3]pLysS
T2 sequence (Q8H1R0 1-183): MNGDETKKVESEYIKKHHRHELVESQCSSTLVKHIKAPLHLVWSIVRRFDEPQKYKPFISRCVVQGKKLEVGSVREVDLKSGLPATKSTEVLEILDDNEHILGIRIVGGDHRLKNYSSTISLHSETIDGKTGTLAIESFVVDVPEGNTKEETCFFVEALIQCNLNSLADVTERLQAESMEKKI
T2 sequence (Q9CAJ0 23-511 partner): T1 sequence (Q9CAJ0 23-511 partner)
Particulars: for remaining activity at 50 µM: 50 uM of the test compound; for IC50: Table XII-B, calculated from dose curves, read-out: PP2C Activity (IC50 in uM) PYL10. The procedure, abridged: as §1

The next test addresses T3, PYL11 (Arabidopsis thaliana, UniProt Q9FJ50).
T3 construct: made in house; host or cells: E. coli BL21[DE3]pLysS
T3 sequence (Q9FJ50 1-161): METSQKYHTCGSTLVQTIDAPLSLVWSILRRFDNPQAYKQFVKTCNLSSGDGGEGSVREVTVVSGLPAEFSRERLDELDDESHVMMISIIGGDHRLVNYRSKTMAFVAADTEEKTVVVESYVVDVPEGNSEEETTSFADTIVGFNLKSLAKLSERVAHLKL
T3 sequence (Q9CAJ0 23-511 partner): T1 sequence (Q9CAJ0 23-511 partner)
Particulars: for remaining activity at 50 µM: 50 uM of the test compound; for IC50: Table XII-B, calculated from dose curves, read-out: PP2C Activity (IC50 in uM) PYL11. The procedure, abridged: (§2)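 Compounds, tested at 25 μM or 50 uM with ABA at 10 uM, were incubated with recombinant receptor and 50 nM GST-HAB1 (2:1 ratio) in MnCl2-containing Tris-OAc buffer, pH 7.9. Phosphatase activity was followed by 4-methylumbelliferyl-phosphate fluorescence.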

The next test deals with T4, PYL9 (Arabidopsis thaliana, UniProt Q84MC7).
T4 construct: 6X-His; made in house; host or cells: E. coli BL21[DE3]pLysS
T4 sequence (Q84MC7 1-187): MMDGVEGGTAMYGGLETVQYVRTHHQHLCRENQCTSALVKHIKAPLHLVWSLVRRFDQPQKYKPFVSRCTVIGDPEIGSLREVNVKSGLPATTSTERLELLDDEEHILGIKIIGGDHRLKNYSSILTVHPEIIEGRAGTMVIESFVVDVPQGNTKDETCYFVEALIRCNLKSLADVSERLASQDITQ
T4 sequence (Q9CAJ0 23-511 partner): T1 sequence (Q9CAJ0 23-511 partner)
Particulars: for remaining activity at 50 µM: 50 uM of the test compound; for IC50: Table XII-B, calculated from dose curves, read-out: PP2C Activity (IC50 in uM) PYL9. The procedure, abridged:
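Fluorogenic readout: 4-methylumbelliferyl-phosphate hydrolysis by 50 nM GST-HAB1 plus 2:1 His-receptor; Tris-OAc pH 7.9, NaCl, 1 mM MnCl2, β-ME. Compounds at 25 μM or 50 uM single dose; IC50 from dose curves for selected compounds.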

The target of another test is T5, PYL5 (Arabidopsis thaliana, UniProt Q9FLB1).
T5 construct: 6X-His; made in house; host or cells: E. coli BL21[DE3]pLysS
T5 sequence (Q9FLB1 1-203): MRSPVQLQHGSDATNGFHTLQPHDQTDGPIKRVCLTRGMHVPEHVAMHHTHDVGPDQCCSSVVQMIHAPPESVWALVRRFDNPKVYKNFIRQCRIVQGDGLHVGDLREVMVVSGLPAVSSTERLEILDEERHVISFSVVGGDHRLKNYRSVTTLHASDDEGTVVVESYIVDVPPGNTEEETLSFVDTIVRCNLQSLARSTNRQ
T5 sequence (Q9CAJ0 23-511 partner): T1 sequence (Q9CAJ0 23-511 partner)
Conditions: for remaining activity at 50 µM: 50 uM of the test compound; for IC50: Table XII-B, calculated from dose curves, read-out: PP2C Activity (IC50 in uM) PYL5. The procedure, abridged:
as §2

A further test concerns the target T6, PYL2 (Arabidopsis thaliana, UniProt O80992).
T6 construct: 6X-His; made in house; host or cells: E. coli BL21[DE3]pLysS
T6 sequence (O80992 1-190): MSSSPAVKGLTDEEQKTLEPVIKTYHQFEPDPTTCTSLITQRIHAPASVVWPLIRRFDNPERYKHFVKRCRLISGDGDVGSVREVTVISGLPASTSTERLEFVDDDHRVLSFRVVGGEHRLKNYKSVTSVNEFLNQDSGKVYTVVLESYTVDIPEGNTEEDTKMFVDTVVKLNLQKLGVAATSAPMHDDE
T6 sequence (Q9CAJ0 23-511 partner): T1 sequence (Q9CAJ0 23-511 partner)
Particulars: for remaining activity at 50 µM: 50 uM of the test compound; for IC50: Table XII-B, calculated from dose curves, read-out: PP2C Activity (IC50 in uM) PYL2. The procedure, abridged: as §1

As to `N#Cc1ccc(CS(=O)(=O)NC(=O)C(c2ccc(F)cc2)c2ccc(F)cc2)cc1` [Compound 72, N-[(4-Cyanophenyl)methanesulfonyl]-2,2-bis(4-fluorophenyl)acetamide], the remaining activity at 50 µM on PYL3 was 100%; at PYL10 it was 98%; at PYL11, 37.4%; at PYL9, 85.8%; at PYL5 it was 102%; on PYL2, 100%. Besides, the IC50 was greater than 50 µM at PYL3; greater than 50 µM on PYL10; 25 µM on PYL11; greater than 50 µM at PYL9; greater than 50 µM at PYL5; greater than 50 µM at PYL2.
For the compound `N#Cc1ccc(CS(=O)(=O)NC(=O)C(C2CCCCC2)C2CCCCC2)cc1` [Compound 73, N-[(4-Cyanophenyl)methanesulfonyl]-2,2-cyclohexylacetamide], the remaining activity at 50 µM on PYL3 turned out to be 92.7%; at PYL10, 85.7%; on PYL11, 26.9%; on PYL9, 56.3%; on PYL5, 110%; at PYL2, 93.8%. The IC50 at PYL3 was greater than 50 µM; on PYL10, greater than 50 µM; on PYL11, 22.4 µM; on PYL9 it was greater than 50 µM; at PYL5 it was greater than 50 µM; at PYL2, greater than 50 µM.
With `N#Cc1ccc(CS(=O)(=O)NC(=O)C2(c3ccsc3)CCCCC2)cc1` [Compound 78, N-[(4-Cyanophenyl)methanesulfonyl]-1-(thiophen-3-yl)cyclohexane-1-carboxamide], the remaining activity at 50 µM at PYL3 was found to be 103%; at PYL10 it was 25.6%; on PYL11, 9.9%; on PYL9, 6.1%; on PYL5, 68.5%; at PYL2, 81.2%. In addition, the IC50 at PYL3 was greater than 50 µM; on PYL10, 0.25 µM; at PYL11 it was 0.19 µM; at PYL9 it was 0.038 µM; at PYL5, greater than 50 µM; at PYL2, greater than 50 µM.
In the case of `O=C(NS(=O)(=O)Cc1ccc([N+](=O)[O-])cc1)C1(c2ccccc2)CCCCC1` [Compound 63], the remaining activity at 50 µM at PYL3 is 127%; on PYL10 it was 88.9%; on PYL11, 92.6%; at PYL9 it was 75.5%; on PYL5 it was 107%; at PYL2, 115%. Also, the IC50 on PYL3, at PYL10, at PYL11, on PYL9, on PYL5 and at PYL2 was greater than 50 µM throughout.
For `N#Cc1ccc(CS(=O)(=O)NC(=O)C2(c3ccccc3)CCCCC2)cc1` [Compound 69, N-[(4-Cyanophenyl)methanesulfonyl]-1-phenylcyclohexane-1-carboxamide], the remaining activity at 50 µM at PYL3 came to 103%; on PYL10, 27.3%; on PYL11, 13.5%; at PYL9, 5.8%; at PYL5, 119%; at PYL2, 96.2%. In addition, the IC50 at PYL3 was greater than 50 µM; at PYL10, 1.69 µM; on PYL11, 2.53 µM; on PYL9 it was 0.135 µM; on PYL5, greater than 50 µM; on PYL2 it was greater than 50 µM.
Turning to `CC1(C)CCC(C(=O)NS(=O)(=O)Cc2ccc(C#N)cc2)(c2ccc(F)cc2)CC1` [Compound 68, N-[(4-Cyanophenyl)methanesulfonyl]-1-(4-fluorophenyl)-4,4-dimethylcyclohexane-1-carboxamide], the remaining activity at 50 µM on PYL3 was 98.3%; at PYL10, 83.3%; at PYL11, 16.2%; at PYL9, 22.6%; at PYL5 it was 103%; on PYL2, 94.8%. For the same compound, the IC50 at PYL3 is greater than 50 µM; at PYL10, greater than 50 µM; on PYL11, 2.22 µM; on PYL9, 17.7 µM; at PYL5 it was greater than 50 µM; at PYL2, greater than 50 µM.
